Assay results reported in patent US5446066A, “Substituted (arylalkoxybenzyl)aminopropanamide derivatives and process for their preparation” (Farmitalia Carlo Erba S.r.l., priority 1993, dated 1995).

How the values were obtained:
[1] = antagonism of maximal electroshock seizures (MES test); type: in vivo; settings: read-out: MES-ED50 (effective dose in 50% of treated animals)
Protocol: The compounds of the invention are active on the central nervous system (CNS) and can be used in therapy, for example as antiepileptics, in the treatment of Parkinson's disease and as neuroprotective agents, e.g. in degenerative processes associated with normal ageing or pathological situations, such as brain ischemia; they can also be used as antidepressants, hypnotics and antispastic agents. The activity on the CNS of the compounds of the invention was evaluated on the basis of pharmacological methods, such as, for example, the antagonism of convulsions and lethality induced by intravenous injection of bicuculline in mice (Antiepileptic Drugs, D. M. Woodbury et al. eds., 2nd edition, Raven Press, New York, 1982), or the antagonism of maximal electroshock seizures (MES) (Woodbury, L. A. and Davenport V. D., Arch. Int. Pharmacodyn. Ther. 92; 97-104, 1952).
(§1) For instance, the following Table 1 summarizes the activity and neurotoxicity data obtained in the MES test and in the rotorod test, respectively, for a representative group of compounds according to the present invention, in comparison with the prior art compound 2-[4-(3-phenylpropyl)oxybenzyl]aminopropanamide methanesulfonate (internal code FCE 27023) which is known from WO-90/14334
ED50 means effective dose in 50% of treated animals

[2] = in vivo
Protocol: The neurotoxicity of the compound and of the reference anticonvulsants was assessed with the rotorod test (Dunan and Miye., J. Am. Pharm. Ass. Sci. Ed., 1957, 46, 208; Kinnard et al., J. Pharmacol. Exp. Ther. 1957, 121, 354; Horowitz. Nature, 1963, 200, 369).
as §1
TD50 means toxic dose in 50% of treated animals
TI means therapeutic index (TD50 /ED50)

| SMILES | ED50 [1] | TD50 [2] | selectivity ratio [2] |
| --- | --- | --- | --- |
| NC(=O)C(CO)NCc1ccc(OCCCc2ccccc2)cc1 (stereo not drawn) [compound 28245] | 8.6 mg/kg | 863 mg/kg | 100 |
| CC(NCc1ccc(OCCCc2ccccc2)cc1)C(N)=O (stereo not drawn) [compound 27023] | 8.8 mg/kg | 584 mg/kg | 66 |
| CC(NCc1ccc(OCCCCCc2ccccc2)cc1)C(N)=O (stereo not drawn) [compound 28244] | 12.5 mg/kg | 1010 mg/kg | 81 |
| CC(NCc1ccc(OCCCCc2ccccc2)cc1)C(N)=O (stereo not drawn) [compound 28243] | 12.4 mg/kg | 1000 mg/kg | 82 |
